From paper PMC9127750, “Structure-based design of CDC42 effector interaction inhibitors for the treatment of cancer” (Cell reports, 2022)
Several values for one entry are separate records, joined by “and”; a condition that tells them apart may be missing. Equal entries are not always repeated.

Tested on: WM3248 melanoma cells, 486 antibodies
Assay: Reverse phase protein arrays (RPPA);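 on RPPA AceCS1.R.V: ratio of treated to vehicle (0 µM) normalized linear protein signal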;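 on RPPA Akt1 pS473.R.V: ratio of treated to vehicle (0 µM) normalized linear protein signal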;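 on RPPA Akt1.R.V: ratio of treated to vehicle (0 µM) normalized linear protein signal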;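 on RPPA Ambra1 pS52.R.C: ratio of treated to vehicle (0 µM) normalized linear protein signal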;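 on RPPA Atg5.R.C: ratio of treated to vehicle (0 µM) normalized linear protein signal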;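 on RPPA Bim.R.V: ratio of treated to vehicle (0 µM) normalized linear protein signal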
Type: cell-based, Human
Details: 5 uM
Text: Pellets were snap frozen in liquid nitrogen and shipped to MD Anderson Cancer Center core RPPA facility for RPPA analysis (Table S5). Three biological replicates for each sample were generated.
Nomenclatures on the RPPA heatmaps: name_of_antibody.species_of_antibody.status_of_antibody. V - antibody validated; C - validation of antibody in progress; Q - antibody nonspecific; E – under evaluation; antibodies raised in M - mouse, G - goat, R - rabbit, or T - rat.

CN(C)c1cccc(Nc2cc(-c3ccccc3)nc(C3CCNCC3)n2)c1 [ARN22089, N1,N1-dimethyl-N3-(6-phenyl-2-(piperidin-4-yl)pyrimidin-4-yl)benzene-1,3-diamine]
RPPA AceCS1.R.V (B.1): 1.006
RPPA Akt1.R.V (B.1): 0.910
RPPA Akt1_pS473.R.V (B.1): 0.894
RPPA Akt2.R.V (B.1): 0.975
RPPA Akt2_pS474.R.C (B.1): 1.016
RPPA Akt_pS473.R.V (B.1): 0.899
RPPA Akt_pT308.R.V (B.1): 0.827
RPPA Ambra1_pS52.R.C (B.1): 0.978
RPPA Annexin.I.M.V (B.1): 1.021
RPPA Atg3.R.V (B.1): 0.935
RPPA Atg4B.R.C (B.1): 0.930
RPPA Atg5.R.C (B.1): 0.974
RPPA Atg7.R.V (B.1): 0.761
RPPA Aurora.A.R.C (B.1): 1.245
RPPA Aurora.ABC_pT288_pT232_pT198.R.C (B.1): 0.869
RPPA Axl.R.V (B.1): 0.622
RPPA B7.H3.R.C (B.1): 0.992
RPPA B.Raf.R.C (B.1): 0.902
RPPA BAP1.M.V (B.1): 0.996
RPPA BCL2A1.R.V (B.1): 0.908
RPPA BMK1.Erk5_pT218_Y220.R.V (B.1): 1.119
RPPA BRCA1.M.C (B.1): 0.934
RPPA BRD4.R.V (B.1): 1.027
RPPA Bad_pS112.R.V (B.1): 0.939
RPPA Bak.R.C (B.1): 0.987
RPPA Bax.R.V (B.1): 0.996
RPPA Bcl.xL.R.V (B.1): 1.022
RPPA Beclin.R.C (B.1): 1.111
RPPA BiP.GRP78.M.C (B.1): 0.998
RPPA Bid.R.C (B.1): 0.999
RPPA Bim.R.V (B.1): 0.906
RPPA X4E.BP1.R.V (B.1): 0.997
RPPA X4E.BP1_pS65.R.V (B.1): 1.205
RPPA X4E.BP1_pT37_T46.R.V (B.1): 1.170
RPPA X14.3.3.zeta.R.V (B.1): 1.080
RPPA X14.3.3βR.V (B.1): 1.052
RPPA X53BP1.R.V (B.1): 0.907
RPPA b.Catenin.R.V (B.1): 1.025
RPPA b.Catenin_pT41_S45.R.V (B.1): 0.975
RPPA c.Abl.R.V (B.1): 0.965
RPPA c.Abl_pY412.R.C (B.1): 0.885
RPPA c.IAP2.R.C (B.1): 1.018
RPPA PREX1.R.V Average (average of 3): 1.056
RPPA PYGB.R.V Average (average of 3): 0.877
RPPA PYGM.M.C Average (average of 3): 0.831
RPPA Puma.R.C Average (average of 3): 0.937
RPPA RBM15.R.V Average (average of 3): 0.979
RPPA RIP3.R.C Average (average of 3): 1.059
RPPA RIP.R.C Average (average of 3): 0.875
RPPA RPA32.R.V Average (average of 3): 0.880
RPPA RPA32_pS4_S8.R.C Average (average of 3): 0.828
RPPA RRM1.R.C Average (average of 3): 0.995
RPPA RRM2.R.C Average (average of 3): 1.008
RPPA RSK1.R.V Average (average of 3): 0.889
RPPA RSK.R.C Average (average of 3): 1.023
RPPA Rab25.R.V Average (average of 3): 1.051
RPPA Rad17_pS645.R.V Average (average of 3): 1.079
RPPA Rad23A.R.C Average (average of 3): 0.869
RPPA Rad50.R.V Average (average of 3): 0.989
RPPA Rad51.R.C Average (average of 3): 1.005
RPPA Raptor.R.V Average (average of 3): 1.028
RPPA Rb_pS807_S811.R.V Average (average of 3): 1.059
RPPA Rheb.M.C Average (average of 3): 0.971
RPPA Rictor.R.C Average (average of 3): 1.019
RPPA Rictor_pT1135.R.V Average (average of 3): 1.106
RPPA S6_pS235_S236.R.V Average (average of 3): 1.300
RPPA S6_pS240_S244.R.V Average (average of 3): 1.738
RPPA SCD.M.V Average (average of 3): 1.005
RPPA SDHA.R.V Average (average of 3): 1.077
RPPA SF2.R.V Average (average of 3): 1.028
RPPA SFRP1.R.V Average (average of 3): 0.962
RPPA SGK1.R.V Average (average of 3): 1.098
RPPA SGK3.R.V Average (average of 3): 0.993
RPPA SHP2.R.V Average (average of 3): 0.993
RPPA SHP.2_pY542.R.C Average (average of 3): 0.941
RPPA SIRPαR.V Average (average of 3): 0.994
RPPA SLC1A5.R.C Average (average of 3): 0.898
RPPA SOD1.M.V Average (average of 3): 1.002
RPPA SOD2.R.V Average (average of 3): 1.033
RPPA SOX7.R.V Average (average of 3): 0.921
RPPA STING.R.V Average (average of 3): 1.006
RPPA Shc_pY317.R.C Average (average of 3): 0.879
RPPA Slfn11.G.C Average (average of 3): 0.785
RPPA Smac.M.Q Average (average of 3): 0.922
RPPA Smad1.R.V Average (average of 3): 1.113
RPPA Smad3.R.V Average (average of 3): 0.963
RPPA Smad4.R.V Average (average of 3): 1.032
RPPA Snail.M.Q Average (average of 3): 1.012
RPPA Sox2.R.V Average (average of 3): 0.986
RPPA Sox17.R.V Average (average of 3): 0.955
RPPA Src_pY416.R.V Average (average of 3): 0.979
RPPA Src_pY527.R.V Average (average of 3): 1.190
RPPA Stat1_pY701.R.V Average (average of 3): 0.966
RPPA Stat3.R.C Average (average of 3): 1.005
RPPA Stat3_pY705.R.C Average (average of 3): 0.914
RPPA Stat5a.R.V Average (average of 3): 1.163
RPPA Stathmin.1.R.V Average (average of 3): 0.991
RPPA Syk.M.V Average (average of 3): 0.987
RPPA Synaptophysin.R.C Average (average of 3): 1.017
RPPA TAZ.R.V Average (average of 3): 0.956
RPPA TEAD.R.C Average (average of 3): 1.012
RPPA TFAM.R.V Average (average of 3): 1.014
RPPA TFRC.R.V Average (average of 3): 0.971
RPPA TIGAR.R.V Average (average of 3): 1.035
RPPA TRAP1.M.V Average (average of 3): 0.973
RPPA TRIM24.R.C Average (average of 3): 0.998
RPPA TRIP13.R.V Average (average of 3): 0.948
RPPA Tau.M.C Average (average of 3): 0.996
RPPA Transglutaminase.M.V Average (average of 3): 0.913
RPPA signal, antibody TSC1.R.C, Average (average of 3 replicates): 1.118
RPPA signal, antibody TTF1.R.V, Average (average of 3 replicates): 0.922
RPPA signal, antibody TUFM.R.V, Average (average of 3 replicates): 1.149
RPPA signal, antibody Tuberin.R.V, Average (average of 3 replicates): 1.289
RPPA signal, antibody Tuberin_pT1462.R.V, Average (average of 3 replicates): 0.994
RPPA signal, antibody Twist.M.C, Average (average of 3 replicates): 0.991
RPPA signal, antibody Tyro3.R.V, Average (average of 3 replicates): 0.915
RPPA signal, antibody UBAC1.R.V, Average (average of 3 replicates): 0.933
RPPA signal, antibody UBQLN4.M.C, Average (average of 3 replicates): 1.031
RPPA signal, antibody UGT1A.M.V, Average (average of 3 replicates): 0.995
RPPA signal, antibody ULK1_pS757.R.C, Average (average of 3 replicates): 1.103
RPPA signal, antibody UQCRC2.M.C, Average (average of 3 replicates): 0.845
RPPA signal, antibody UVRAG.R.C, Average (average of 3 replicates): 1.060
RPPA signal, antibody VASP.R.V, Average (average of 3 replicates): 1.009
RPPA signal, antibody VEGFR.2_pY1175.R.C, Average (average of 3 replicates): 0.987
RPPA signal, antibody VHL.EPPK1.M.C, Average (average of 3 replicates): 0.993
RPPA signal, antibody VHL.R.C, Average (average of 3 replicates): 0.983
RPPA signal, antibody Vinculin.M.V, Average (average of 3 replicates): 0.997
RPPA signal, antibody WIPI1.R.C, Average (average of 3 replicates): 0.904
RPPA signal, antibody WTAP.R.V, Average (average of 3 replicates): 0.916
RPPA signal, antibody Wee1.R.C, Average (average of 3 replicates): 1.196
RPPA signal, antibody Wee1_pS642.R.C, Average (average of 3 replicates): 1.114
RPPA signal, antibody XBP.1.G.C, Average (average of 3 replicates): 0.890
RPPA signal, antibody XPA.M.V, Average (average of 3 replicates): 1.012
RPPA signal, antibody XPF.R.C, Average (average of 3 replicates): 1.010
RPPA signal, antibody XRCC1.R.C, Average (average of 3 replicates): 0.941
RPPA signal, antibody YAP.R.C, Average (average of 3 replicates): 1.005
RPPA signal, antibody YAP_pS127.R.V, Average (average of 3 replicates): 0.945
RPPA signal, antibody YB1_pS102.R.V, Average (average of 3 replicates): 0.981
RPPA signal, antibody YES1.R.V, Average (average of 3 replicates): 0.965
RPPA signal, antibody YTHDF2.R.V, Average (average of 3 replicates): 0.921
RPPA signal, antibody YTHDF3.R.C, Average (average of 3 replicates): 0.920
RPPA signal, antibody ZAP.70.R.V, Average (average of 3 replicates): 1.002
RPPA signal, antibody ZEB1.R.V, Average (average of 3 replicates): 0.953
RPPA signal, antibody TSC1.R.C (individual replicates): 1.023 and 1.362
RPPA signal, antibody TTF1.R.V (individual replicates): 0.931 and 1.030 and 0.806
RPPA signal, antibody TUFM.R.V (individual replicates): 1.892 and 0.802 and 0.754
RPPA signal, antibody Tuberin.R.V (individual replicates): 0.956 and 1.663 and 1.249
RPPA signal, antibody Tuberin_pT1462.R.V (individual replicates): 0.926 and 1.194 and 0.864
RPPA signal, antibody Twist.M.C (individual replicates): 1.006 and 0.964 and 1.005
RPPA signal, antibody Tyro3.R.V (individual replicates): 1.127 and 0.928 and 0.691
RPPA signal, antibody U.Histone.H2B.R.C (individual replicates): 0.941
RPPA signal, antibody UBAC1.R.V (individual replicates): 0.942 and 1.076 and 0.780
RPPA signal, antibody UBQLN4.M.C (individual replicates): 0.956 and 1.187
RPPA signal, antibody UGT1A.M.V (individual replicates): 1.021 and 0.968 and 0.996
RPPA signal, antibody ULK1_pS757.R.C (individual replicates): 1.126
RPPA signal, antibody UQCRC2.M.C (individual replicates): 0.997 and 0.500
RPPA signal, antibody UVRAG.R.C (individual replicates): 0.983 and 1.130
RPPA signal, antibody VASP.R.V (individual replicates): 0.982 and 1.010
RPPA signal, antibody VAV1.R.C (individual replicates): 0.910 and 1.057 and 1.165
RPPA signal, antibody VEGFR.2.R.V (individual replicates): 0.908 and 1.050 and 1.150
RPPA signal, antibody VEGFR.2_pY1175.R.C (individual replicates): 0.907 and 1.020
RPPA signal, antibody VHL.EPPK1.M.C (individual replicates): 0.920
RPPA signal, antibody VHL.R.C (individual replicates): 1.080 and 0.894 and 0.975
